{"source": "patent US11479802B2", "about": "“Assays for screening activity of modulators of members of the hydroxy steroid (17-beta) dehydrogenase (HSD17B) family” (Regeneron Pharmaceuticals, Inc., priority 2017, dated 2022)", "molecular_target": "T1, human HSD17B13 (Homo sapiens, UniProt Q7Z5P4)", "T1 sequence (Q7Z5P4 20-300)": "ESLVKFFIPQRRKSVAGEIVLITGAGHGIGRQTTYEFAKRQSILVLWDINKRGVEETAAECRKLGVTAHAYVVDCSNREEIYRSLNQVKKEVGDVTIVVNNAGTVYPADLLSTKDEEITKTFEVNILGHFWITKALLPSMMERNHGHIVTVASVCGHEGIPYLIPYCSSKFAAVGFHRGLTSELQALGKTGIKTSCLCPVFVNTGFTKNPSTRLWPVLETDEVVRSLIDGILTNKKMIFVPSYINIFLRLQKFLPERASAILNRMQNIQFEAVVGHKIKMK", "assay": "Substrate screening of steroid and bioactive lipid libraries against purified recombinant HSD17B13 (NADH-linked luciferase assay)", "type": "biochemical", "settings": "for HSD17B13 Enzymatic Activity Relative Light Units: 500 μM NAD+, 100 ng enzyme, 3 hours at 23° C.; for HSD17B13 Enzymatic Activity Percent Estradiol Control: normalized to 50 μM estradiol after subtraction of 5% DMSO", "procedure": "To understand the functional consequences of premature truncation of the HSD17B13 protein due to rs72613567:TA (the associated variant, rs72613567, is an insertion of an adenine adjacent to the donor splice site of exon six (TA allele)), the enzymatic activity of isoforms A and D was evaluated in vitro using recombinant protein and nicotinamide […] dinucleotide as cofactor. Reactions were performed in a final volume of 40 μl of assay buffer (0.2 M Tris-HCl, pH 7.5) which contained 500 μM NAD^+, 5 μM bioactive lipid or 50 μM steroid (all in a final concentration of 5% DMSO), and 100 ng of recombinant human HSD17B13. Reactions were incubated for 3 hours, at 23° C., after which an equal volume detection reagent was added. Following a 1 hour incubation at 23° C., the relative light units (RLUs) were measured on an Envision Plate Reader (Perkin Elmer). Raw RLU values were normalized as percent of control (50 μM estradiol) following subtraction of negative control (5% DMSO) using the following formula: Percent of control (POC)=100×(Sample (RLU)−Negative CTRLaverage)/(Positive CTRLaverage−Negative CTRLaverage).", "key": {"[1]": {"settings": "Bioactive Lipid Library, 5 μM bioactive lipid (Estradiol Control 50 μM)"}, "[2]": {"settings": "Bioactive Lipid Library, 5 μM bioactive lipid"}}, "note": "Structures can show the parent of a compound that is named as a salt."}
{"compound": "CCCCC/C=C\\C/C=C\\C/C=C\\C=C\\[C@@H](O)CCCC(=O)OC", "note": "(racemic) [(±)5-HETE methyl ester]", "values": [{"measurement": "HSD17B13 Enzymatic Activity Relative Light Units", "setting": "[1]", "result": 337600, "unit": "RLU"}, {"measurement": "HSD17B13 Enzymatic Activity Percent Estradiol Control", "setting": "[2]", "result": 3.78, "unit": "%"}]}
{"compound": "CCCCCC(O)/C=C/C=C\\CCCCCCCCCC(=O)O", "note": "(racemic) [(±)15-HEDE]", "values": [{"measurement": "HSD17B13 Enzymatic Activity Relative Light Units", "setting": "[1]", "result": 1430720, "unit": "RLU"}, {"measurement": "HSD17B13 Enzymatic Activity Percent Estradiol Control", "setting": "[2]", "result": 85.06, "unit": "%"}]}
{"compound": "C[C@]12C=CC(=O)C=C1CC[C@@H]1[C@@H]2C(=O)C[C@@]2(C)[C@H]1CC[C@]2(O)C(=O)CO", "note": "[Prednisone]", "values": [{"measurement": "HSD17B13 Enzymatic Activity Relative Light Units", "setting": "Steroid Library, 50 μM steroid", "result": 196720, "unit": "RLU"}, {"measurement": "HSD17B13 Enzymatic Activity Percent Estradiol Control", "setting": "Steroid Library, 50 μM steroid", "result": 0.63, "unit": "%"}]}
{"compound": "C[C@@H](O)CCC[C@@H](O)/C=C/[C@@H]1[C@@H](C/C=C\\CCCC(=O)O)[C@@H](O)C[C@H]1O", "note": "[15(R),19(R)-hydroxy Prostaglandin F2α]", "values": [{"measurement": "HSD17B13 Enzymatic Activity Relative Light Units", "setting": "[1]", "result": 382720, "unit": "RLU"}, {"measurement": "HSD17B13 Enzymatic Activity Percent Estradiol Control", "setting": "[2]", "result": 7.88, "unit": "%"}]}
{"compound": "O=C(O)CCCCC(=O)CC[C@@H]1[C@@H](CCC(=O)O)[C@@H](O)C[C@H]1O", "note": "[tetranor-PGFM]", "values": [{"measurement": "HSD17B13 Enzymatic Activity Relative Light Units", "setting": "[1]", "result": 367640, "unit": "RLU"}, {"measurement": "HSD17B13 Enzymatic Activity Percent Estradiol Control", "setting": "[2]", "result": 6.68, "unit": "%"}]}
{"compound": "CCCCC[C@H](O)/C=C/C=C\\C=C\\C=C\\[C@H](O)[C@@H](O)CCCC(=O)O", "note": "[6(S)-Lipoxin A4]", "values": [{"measurement": "HSD17B13 Enzymatic Activity Relative Light Units", "setting": "[1]", "result": 383000, "unit": "RLU"}, {"measurement": "HSD17B13 Enzymatic Activity Percent Estradiol Control", "setting": "[2]", "result": 7.90, "unit": "%"}]}
{"compound": "C[C@]12CC[C@@H]3c4ccc(O)cc4CC[C@H]3[C@@H]1CCC2=O", "note": "[Estrone]", "values": [{"measurement": "HSD17B13 Enzymatic Activity Percent Estradiol Control", "setting": "Steroid Library, 50 μM steroid", "result": 0.45, "unit": "%"}]}
{"compound": "CCC(O)C(O)C/C=C\\C/C=C\\C/C=C\\C/C=C\\CCCC(=O)O", "note": "(racemic) [(±)17(18)-DiHETE]", "values": [{"measurement": "HSD17B13 Enzymatic Activity Relative Light Units", "setting": "[1]", "result": 369120, "unit": "RLU"}, {"measurement": "HSD17B13 Enzymatic Activity Percent Estradiol Control", "setting": "[2]", "result": 3.33, "unit": "%"}]}
{"compound": "CCCCC[C@H](O)/C=C/C=C\\C=C\\C=C\\[C@@H](O)[C@@H](O)CCCC(=O)O", "note": "[Lipoxin A4]", "values": [{"measurement": "HSD17B13 Enzymatic Activity Relative Light Units", "setting": "[1]", "result": 352680, "unit": "RLU"}, {"measurement": "HSD17B13 Enzymatic Activity Percent Estradiol Control", "setting": "[2]", "result": 2.09, "unit": "%"}]}
{"compound": "O=P(O)(O)O[C@@H]1C(O)[C@H](OP(=O)(O)O)[C@@H](O)C(O)[C@H]1O", "note": "(stereo partly drawn) [D-myo-Inositol-1,3-diphosphate (sodium salt)]", "values": [{"measurement": "HSD17B13 Enzymatic Activity Relative Light Units", "setting": "[1]", "result": 487280, "unit": "RLU"}, {"measurement": "HSD17B13 Enzymatic Activity Percent Estradiol Control", "setting": "[2]", "result": 12.25, "unit": "%"}]}
{"compound": "C[C@]12CC[C@@H](O)C[C@@H]1CC[C@@H]1[C@@H]2[C@@H](O)C[C@]2(C)C(=O)CC[C@@H]12", "note": "[11beta-Hydroxyandrosterone]", "values": [{"measurement": "HSD17B13 Enzymatic Activity Relative Light Units", "setting": "Steroid Library, 50 μM steroid", "result": 224720, "unit": "RLU"}, {"measurement": "HSD17B13 Enzymatic Activity Percent Estradiol Control", "setting": "Steroid Library, 50 μM steroid", "result": 1.12, "unit": "%"}]}
{"compound": "Ptdlns-(5)-P1 (1,2-dipalmitoyl) (ammonium salt)", "values": [{"measurement": "HSD17B13 Enzymatic Activity Relative Light Units", "setting": "[1]", "result": 19160, "unit": "RLU"}, {"measurement": "HSD17B13 Enzymatic Activity Percent Estradiol Control", "setting": "[2]", "result": "−23.10", "unit": "%"}]}
{"compound": "CCCCC/C=C\\CC(O)C(O)CCCCCCCC(=O)O", "note": "(racemic) [(±)9(10)-DiHOME]", "values": [{"measurement": "HSD17B13 Enzymatic Activity Relative Light Units", "setting": "[1]", "result": 391000, "unit": "RLU"}, {"measurement": "HSD17B13 Enzymatic Activity Percent Estradiol Control", "setting": "[2]", "result": 4.98, "unit": "%"}]}
{"compound": "CCCCC[C@H](O)/C=C/C=C\\C/C=C\\C/C=C\\CCCC(=O)O", "note": "(racemic) [(±)15-HETE]", "values": [{"measurement": "HSD17B13 Enzymatic Activity Relative Light Units", "setting": "[1]", "result": 47880, "unit": "RLU"}, {"measurement": "HSD17B13 Enzymatic Activity Percent Estradiol Control", "setting": "[2]", "result": 30.81, "unit": "%"}]}
{"compound": "CCCCC/C=C\\C[C@H](O)/C=C/C=C\\CCC(=O)O", "note": "[tetranor-12(S)-HETE]", "values": [{"measurement": "HSD17B13 Enzymatic Activity Relative Light Units", "setting": "[1]", "result": 379280, "unit": "RLU"}, {"measurement": "HSD17B13 Enzymatic Activity Percent Estradiol Control", "setting": "[2]", "result": 4.10, "unit": "%"}]}
{"compound": "CCCCC/C=C\\C=C\\[C@H](O)CCCCCCCC(=O)O", "note": "[9(R)-HODE]", "values": [{"measurement": "HSD17B13 Enzymatic Activity Relative Light Units", "setting": "[1]", "result": 413280, "unit": "RLU"}, {"measurement": "HSD17B13 Enzymatic Activity Percent Estradiol Control", "setting": "[2]", "result": 9.40, "unit": "%"}]}
{"compound": "C[C@]12CC[C@H]3[C@@H]([C@H]4C[C@H]4[C@]4(O)C[C@@H](O)CC[C@]34C)[C@@H]1[C@@H]1C[C@@H]1C2=O", "note": "[3b,5-Dihydroxy-6b,7b:15b,16b-dimethylene-5b-androstan17-one]", "values": [{"measurement": "HSD17B13 Enzymatic Activity Relative Light Units", "setting": "Steroid Library, 50 μM steroid", "result": 183120, "unit": "RLU"}, {"measurement": "HSD17B13 Enzymatic Activity Percent Estradiol Control", "setting": "Steroid Library, 50 μM steroid", "result": 0.39, "unit": "%"}]}
{"compound": "CCCCC[C@H](O)/C=C/[C@@H]1[C@@H](C/C=C\\CCCC(=O)NCCCCCNC(=O)CCCC[C@H]2SC[C@@H]3NC(=O)N[C@@H]32)[C@@H](O)C[C@H]1O", "note": "[Prostaglandin F2α-biotin]", "values": [{"measurement": "HSD17B13 Enzymatic Activity Relative Light Units", "setting": "[1]", "result": 340200, "unit": "RLU"}, {"measurement": "HSD17B13 Enzymatic Activity Percent Estradiol Control", "setting": "[2]", "result": 1.14, "unit": "%"}]}
